For one data set, the system named is hair. Nature of the data set: Permanent waving of hair on curlers with the composition, then oxidative fixing; assessed by hairdresser and customer. Format: in vivo, human. Conditions: used alone as the hair keratine reducing agent. The text has this: The method of permanent shaping of human hair according to the invention is defined as: A method for permanent shaping of hair, said method comprising the steps of: • (a) putting the hair in a desired shape; • (b) before and/or after the hair is put in the desired shape, applying an amount of a permanent shaping composition to the hair, and allowing the permanent shaping composition to act on the hair for a predetermined acting time sufficient for the permanent shaping of the hair; • (c) subsequently rinsing the hair with water or applying an intermediate treatment agent; • (d) performing an oxidative post-treatment of the hair; • (e) after the oxidative post-treatment, rinsing the hair with water and drying the hair, wherein said permanent shaping composition is a composition according to any-one of claims 1 to 13. Details of the method are given as follows. First the hair (which is washed and towel-dried) is separated into multiple sections and then these sections are rolled onto curlers. […] After the rolling on curlers is finished, the curlers are thoroughly wetted down using the required quantity of the permanent shaping composition, preferably about 60 g to about 120 g. […] The fixing composition is used in a quantity of about 50 g to about 200 g, preferably about 80 g to about 100 g, depending on hair thickness and length. […]

The conditions of data set [1]: versus N-methylmercaptoacetamide and N-hydroxyethylmercaptoacetamide; cited from earlier work.

These results are taken from patent US20080025938A1, “Method and composition for permanently shaping hair” (priority 2006, published 2008).

As to `O=C(CS)NCCCO` [N-(3′-hydroxypropyl)-2-mercapto-acetamide], in the data set on hair, the “fastness of the permanent shaped hair to humidity, particularly sweat” value is “not sufficient”. In data set [1], the sensitization rates result is “substantially lower sensitization rates”.
